Test results reported in US8304382B2, “Anti-inflammatory and anti-allergic cyclic peptides” (Cristalia Productos Quimicos Farmaceuticos Ltda., priority 2006, dated 2012).
Bridge positions count the residues as written; N and C are the ends. Peptide text beside a SMILES is read from it.

Legend:
trypsin = biological target: T1, trypsin (Bos taurus, UniProt P00760); assay: Inhibition of trypsin, determination of inhibition constants (Ki); type: biochemical
T1 construct: gene PRSS1
T1 sequence (P00760 24-246): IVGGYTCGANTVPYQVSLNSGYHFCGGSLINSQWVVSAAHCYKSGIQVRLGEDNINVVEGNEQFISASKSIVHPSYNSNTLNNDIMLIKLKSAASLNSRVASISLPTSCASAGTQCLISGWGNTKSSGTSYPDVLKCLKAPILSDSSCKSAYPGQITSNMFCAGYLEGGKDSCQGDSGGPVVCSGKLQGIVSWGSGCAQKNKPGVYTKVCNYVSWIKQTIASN
Description: The substrate utilized was Abz-Phe-Arg-Ser-Ser-Arg-Gln-EDDnp (SEQ ID NO: 11), a fluorescent analog of bradykinin, purified by way of high pressure liquid chromatography, (HPLC) until purity greater than 95% (single peak) was achieved.
The hydrolysis reactions were conducted using a Hitachi. F-2000 spectrofluorometer, with the excitation and emission slits set at 10 and 20 nm, and the excitation and emission wavelengths at 320 and 420 nm, respectively. The temperature of the reaction cuvette was maintained at 37° C. in a thermostatically controlled compartment.
The enzymatic activity of trypsin (0.5-5 nM) was determined in 50 mM Tris-HCl buffer, pH 8.0, containing 20 mM NaCl at 37° C., with the addition of approximately 0.1-6.0 μM of the fluorescent substrates. The increase in fluorescence was monitored continually for 5 min in the spectrofluorometer. When necessary, the correction of the fluorescent reading was done using the empiric equation described by Araújo et. al., Biochemistry 25; 8519, 2000. Kinetic data were determined from the initial hydrolysis (consumption of substrate less than 10%) and calculations involving kinetic parameters (Km, Vmáx and kcat) were performed using the Michaelis-Menten equation furnished by the GRAFIT for Windows 3.0 program.
To determine the inhibition kinetics of trypsin with the peptides of the present invention, three substrate concentrations were used: a) corresponding to half of the value of Km (0.8 μM); b) corresponding to the whole value of Km (1.6 μM); c) corresponding to slightly more than double the value of Km (3.5 μM). […] Incubation carried out at 37° C. Tris-HCl buffer, pH 8.0, containing 20 mM NaCl at 37° C. For characterization of enzymatic inhibition, a Lineweaver-Burk plot was employed (1/V vs 1/S), and the value of Ki was determined from the relation between the apparent inhibition constant (Ki(app)) and the value of Km for the substrate: Ki(app)=[I]/[(v0/vi)−1] and Ki=Ki(app)/[(Km/[S])+1] where; [I]=inhibitor concentration; (v0/vi)=ratio of the hydrolysis velocities in the absence and presence of inhibitor, respectively. Km/[S]=ratio between Km of the substrate and substrate concentration.

[1] = system: recruitment of leukocytes in the peritoneal cavity; assay: Prevention of peritonitis induced by LPS; type: in vivo, mice; settings: 24 h
Description: Mice were injected intraperitoneally with 4 nmol or 40 nmol of the peptide identified by SEQ ID NO: 7 dissolved in 500 μL of sterile saline solution, 30 minutes prior to administering intraperitoneal injection of LPS (O55:BR 20 μg/mL, Sigma) diluted in 500 μL of sterile saline solution. Animals injected only with sterile saline were considered controls, 24 h after injection of LPS, the animals were sacrificed with a high dose of chloral hydrate to obtain the washing of the peritoneal cavity to count the number of cells (A), neutrophils (B) and macrophages (C). The material removed from the peritoneum was centrifuged for 10 minutes at 1500 rpm and 4° C., the supernatant was separated and frozen at −20° C. for future analyses, while the remaining material containing the cells was re-suspended in PBS 0.1% BSA. The total count was performed in a Neubauer chamber, For the differential count, an aliquot of the cellular suspension was placed on slides and centrifuged (Citospin), stained with Hema 3 and examined under the optical microscope, counting a total of 300 cells. The absolute number of each cellular population was obtained by multiplication of the percentages by the total number of cells found in the sample volume.

[2] = system: leukocytes and eosinophils recruited to the alveolar space; assay: Acute pulmonary asthma induced by ovalbumin, bronchoalveolar lavage cell count; type: in vivo, BALB/c mice
Description: (§1) After the 14th day, the animals were submitted to 3 challenges per week with a 1% OVA aerosol, Immunized animals and challenged only with PBS (phosphate buffered saline) were considered controls. To induce chronic asthma, the animals were challenged 3 times a week during 3 consecutive weeks.
(§2) For the aerosol challenge, the animals were placed in a closed plastic box adapted with an ultra-sonic nebulizer (US-800, ICEL) and exposed to inhalation of 2 mL of a 1% solution of ovalbumin (grade V, Sigma) in saline, over 20 minutes, 24 h after the last aerosol challenge, the animals were sacrificed with a high dose of chloral hydrate to obtain the peripheral blood, the Broncho-Alveolar Lavage (BAL) and the pulmonary tissue to count the total number of leukocytes and eosinophils.
(§3) Groups of animals were treated with 4 nmol or 40 nmol of the peptide identified by SEQ ID NO: 7 intranasally and intraperitoneally 30 minutes before each challenge, and orally 1 hour before each challenge. The group of animals with chronic asthma was treated only with 4 nmol or 40 nmol of the peptide identified by SEQ ID NO: 7_intraperitoneally 30 minutes before each challenge.
(§4) The aerial space was washed with three, 1 mL aliquots of HBSS (Hanks Balanced Salt Solution) EDTA (ethylenediaminetetraacetic acid). After collection, the BAL was immediately centrifuged at 800 rpm for 10 minutes, the supernatant discarded, and the cellular button was re-suspended in 1 mL of HBSS 0.1% BSA (bovine serum albumin) to count the cells. The total cells from the BAL were counted in a Neubauer chamber. Aliquots containing 5×10^5 cells were centrifuged on glass slides using a cytocentrifuge, for 5 minutes at 600 rpm. To determine the percentages of the different cellular populations, the slides were stained with Hema 3 and 300 cells were counted in randomly selected fields. The absolute number of each cellular population in the BAL was obtained by multiplication of the percentages by the total number of cells found in the sample volume.

[3] = system: leukocytes and eosinophils recruited to the alveolar space; assay: Chronic asthma induced by ovalbumin, bronchoalveolar lavage cell count; type: in vivo, BALB/c mice
Description: as §1, §2, §3, §4

[4] = system: leukocyte rolling in post-capillary venules of the cremaster muscle; settings: topical, LPS-induced rolling; FIG. 2 and 3
[5] = 4 or 40 nmol i.p. 30 min before LPS, FIG. 4
[6] = 4 nmol or 40 nmol intraperitoneally, FIG. 6

| Compound | Ki (trypsin) [nM] | prevention of the recruitment of leukocytes in the peritoneal cavity ([1]; 4 nmol and 40 nmol i.p. 30 min before LPS, compared to the control) [%] | recruitment of macrophages in the peritoneal cavity [1, 5] | recruitment of neutrophils in the peritoneal cavity [1, 5] | effect on recruitment of cells to the lung compared with oral dexamethasone 0.3 mg/Kg [2] | total number of leukocytes recruited to the alveolar space ([2]; 4 nmol or 40 nmol, all routes (intranasal, intraperitoneal, oral), FIG. 5) | eosinophils in the bronchoalveolar lavage ([2]; 4 nmol or 40 nmol, all routes, FIG. 5) | effect on recruitment of cells to the lung compared with oral dexamethasone 0.3 mg/Kg [3] | eosinophils in the bronchoalveolar lavage [3, 6] | total number of leukocytes recruited to the alveolar space [3, 6] | inhibition of leukocyte rolling (in words) [4] |
| --- | --- | --- | --- | --- | --- | --- | --- | --- | --- | --- | --- |
| CC[C@H](C)[C@H](N)C(=O)N1CCC[C@H]1C(=O)N[C@@H](CCCNC(=N)N)C(=O)N[C@H]1CSSC[C@@H](C(N)=O)NC(=O)[C@H](CCSC)NC(=O)[C@H](CCCCN)NC(=O)[C@H](C(C)C)NC(=O)CNC(=O)[C@@H]2CCCN2C(=O)[C@H](CCSC)NC(=O)[C@H](CCCCN)NC(=O)[C@H](CCCNC(=N)N)NC1=O [SEQ ID NO: 7, Ile1-Pro2-Arg3-Cys4-Arg5-Lys6-Met7-Pro8-Gly9-Val10-Lys11-Met12-Cys13-NH2] (H-IPRCRKMPGVKMC-NH2; disulfide 4-13) | 20 | ~50 | prevented the recruitment | prevented the recruitment | similar | provoked a decrease | absence of eosinophils | similar | decrease in eosinophils | provoked a decrease |  |
| Cys1-Arg2-Lys3-Met4-Pro5-Gly6-Val7-Lys8-Met9-Cys10 [SEQ ID NO: 12] |  |  |  |  |  |  |  |  |  |  | maintained inhibitory activity |
| Ile1-Pro2-Arg3-Cys4-Arg5-Lys6-Met7-Pro8-Gly9-Val10-Ala11-Met12-Cys13 [SEQ ID NO: 10] |  |  |  |  |  |  |  |  |  |  | not efficient |
